Common to all, as to format: cell-based, rat
Assay [1] relates to AKT (Ser 473). Nature of the assay: Western blot of AKT phosphorylation (Ser 473). The method, then:
For Western blot analysis proteins were separated on SDS-PAGE gels (4-12% resolving gel, Invitrogen), transferred to PVDF membranes (Roche) and blocked with Roti-Block® (Roth) for 1 hour. Membranes were incubated with primary antibodies overnight. The anti-AS160 antibody was from Upstate. Membranes were washed in TBST and incubated with the appropriate secondary horseradish peroxidase conjugated antibody (Santa Cruz). Immunoreactive bands were visualized with LumiLight (Roche) and detected with Lumi-lmager (Böhringer Ingelheim).
In order to examine tetracycline- and insulin-dependent expression of isoform2 of AS160 protein in L6-GLUT4myc cells containing AS160-like, a western blot analysis was performed. The expression of AS160-like protein was induced with 1 μg/ml doxycyclin for 48 hours as described above. Subsequently, the cells were stimulated with insulin (5 nM to 50 nM; Sanofi-Aventis) for 20 minutes. Cell extracts were prepared, separated via SDS-PAGE and transferred to a PVDF membrane as described above.
The AKT inhibitor Calb. had no effect on the phosphorylation of AKT (Ser 473) (FIG. 11A). […] Phosphorylation of AKT on Ser 473 was detected with a phospho-specific antibody from Biosource (Cat No.: 44-621G).

Assay [2] deals with L6-GLUT4myc cells. The assay can be described thus: Uptake of 2-deoxyglucose in L6-GLUT4myc cells with tet-inducible isoform2 of AS160. The method, then: For all examples […]T4myc cells containing isoform2 of AS160 were grown in MEMα (PAN) supplemented with 10% fetal calf serum (FCS) (PAA, tet-free), 2 μg/ml blasticidin (Calbiochem), 0.5 μg/ml puromycin (InvivoGen), 200 μg/ml hygromycin (Invitrogen). Expression of isoform2 of AS160 was induced with 1 μg/ml doxycyclin (Sigma). L6-wildtype (wt) (ATCC: CRL-1458) cells were grown in MEMα+GlutaMax (Gibco) supplemented with 10% FCS (PAA, tet-free) and 1% penicillin/streptomycin (PAA). […]T4myc cells were grown in MEMα+GlutaMax (Gibco) supplemented with 10% FCS (PAA, tet-free), 1% penicillin/streptomycin (PAA) and 2 μg/ml blasticidin (Calbiochem). All cells were grown at 37° C. and 5% CO2. […]T4myc cells containing isoform2 of AS160 were incubated in starve medium (MEMα) 3-4 hours prior to each experiment. To examine glucose uptake of the cells, the respective cells were plated in 96 well Cytostar-T scintillating microplates (Amersham). After 48 hours cells were serum-starved (3-4 hours) and treated with inhibitors as indicated. Uptake of 2-deoxyglucose (0.01 MBq per well, Amersham) was performed as already described (Voss et al., 2005). Nonspecific uptake was determined in the presence of 40 μM cytochalasin B (Calbiochem). This value was subtracted from all other values. Measurement occurred in a Wallac Microbeta counter (Perkin Elmer). Uptake of 2-deoxyglucose is presented as counts per […] (cpm).

Assay [3] deals with L6-GLUT4myc cells. The assay can be described thus: Tetracycline-inducible GFP expression (functionality of the tet-repressor). Conditions: pCDNA5/TO-GFP; addition of doxycyclin; data not shown. The method, then:
L6-GLUT4myc cells containing AS160-like were grown in MEMα (PAN) supplemented with 10% fetal calf serum (FCS) (PAA, tet-free), 2 μg/ml blasticidin (Calbiochem), 0.5 μg/ml puromycin (InvivoGen), 200 μg/ml hygromycin (Invitrogen). Functionality of the tet-repressor was controlled with a tetracycline-inducible GFP expression plasmid (pCDNA5/TO-GFP). In the absence of tetracycline (or doxycyclin) only a small number of cells express GFP. Addition of doxycyclin increases the number of GFP expressing cells about 10 fold (data not shown).

For assay [4], the system named is AKT (Ser 473). The assay can be described thus: In-cell western, phospho-AKT. The source says: (§1) To study phosphorylation of AKT and AS160 the cells described in Example 2 were used. AS160 is activated by phosphorylation on critical motifs (RXRXXS/T). Known phospho-sites in AS160 are Ser 570, Ser 588, Thr 642 and Thr 751 (Sano et al., 2003). One of the kinases responsible for the activation of AS160 is AKT (Kane et al., 2002). In order to determine the activation status of the isoform2 of AS160 the In-cell western blot technique was used. This method allows the detection of specific proteins directly in 96 well plates without preparation of cell extracts. The specific antibody used in this assay recognizes the phosphorylated Thr 642 phosphorylation site of AS160 and AS160-like protein.
(§2) For this, cells were seeded into 96-well plates (black, Nunc) and grown for 48 hours. Cells were starved for 3-4 hours with MEMα (PAN) containing 2% horse serum (Cambrex). After removal of medium cells were fixed in 3.7% freshly prepared para-formaldehyde (Sigma) for 20 minutes. Cells were permeabilized with PBS+0.1% Triton-X-100. Blocking was performed with Odyssey blocking buffer (Licor) overnight at 4° C. Primary antibodies were incubated for 2 hours at room temperature. The anti-phosphoAKT (Ser 473, Cat No.: 44-621 G) and the anti-phosphoAS160 (Thr 642, Cat No.: 44-1071 G) were from Biosource. After incubation of the primary antibody, cells were washed with PBS+0.1% Tween20. The secondary anti-rabbit-IgG-800-CW antibody (Rockland Cat No.: 611-131-122) was incubated for 1 hour. For detection of DNA TO-PRO3 dye (Molecular Probes, Cat No.: T3605) was used. Fluorescence signals (FIG. 6) are presented as relative units (RU).

For assay [5], the system named is AS160 (Thr 642). The assay can be described thus: In-cell western, phospho-AS160.
Text: as §1, §2

The test system of assay [6] is GLUT4. The assay can be described thus: GLUT4 translocation, laser-scanning fluorescence microplate cytometry (ACUMEN). As to the method: For this purpose, a technique suitable for screening of compounds was applied. Laser-scanning fluorescence microplate cytometry (ACUMEN technique, LIT) allows the distinct multiparametric analysis of single fluorescent cells in microplates (Bowen and Wylie, 2006). For laser-scanning fluorescence microplate cytometer (Acumen) cells were plated in 96 well plates (Biocat, black). Serum-starved cells were treated as indicated. Briefly, cells were fixed in 3.75% para-formaldehyde (Sigma) for 20 minutes. Subsequently, quenching occurred with […] NH4Cl. Cells were blocked with an adequate blocking solutions for a minimum of 1 hour. Primary antibody (monoclonal anti-myc 9E10, Santa Cruz, sc-40) was incubated for 1 hour. The secondary goat-anti mouse IgG (Alexa Fluor 488, Molecular Probes) was incubated in the presence of Sytox-orange for 1 hour (Bowen and Wylie, 2006).
Based on this highly sensitive procedure it is possible to screen various cell numbers for plasma-membrane based GLUT4-myc-display. Cells were counter-stained with a DNA dye (SytoxOrange) to confirm equal cell numbers.

Assay [7] has as its system GLUT4-myc. Nature of the assay: Immunofluorescence localization of GLUT4-myc. Conditions: insulin 100 nM, 20 minutes; L6-GLUT4-myc-tetR-AS160-like. The method, then: Cells were grown on sterile cover slides in 12 well plates. Expression of isoform2 of AS160 was induced with doxycyclin treatment for 48 hours. Serum-starved cells were treated with 100 nM insulin for 20 minutes or were left untreated. After stimulation, cells were fixed in 3.75% para-formaldehyde (Sigma) for 20 minutes. Subsequently, cells were permeabilised with 0.1% TritonX100 in PBS (Icon Biomedicals) or left unpermeabilised (as indicated) for 5 minutes at room temperature. The permeabilisation procedure allows the detection of intracellular localized compartments. Membrane-bound proteins are visualized without permeabilising the cells. Blocking of cells occurred for a minimum of 1 hour in PBS+1% BSA (USB). Primary antibodies (monoclonal anti-myc, Santa Cruz, sc-40 and polyclonal anti-AS160 Upstate) were incubated overnight. The secondary antibodies used are anti-rabbit Alexa488 to detect isoform2 of AS160 and anti-mouse A546 to detect GLUT4-myc. Incubation occurred is for 1 hour (dark). Cells were mounted in 15 μl Dako Cytomation Fluorescent Mounting Medium (DakoCytomation), examined by confocal laser-scanning microscopy with Leica DM IRE2 and analyzed with Leica DM SDK software.

Setting [8] is: without expression of isoform 2 of AS160.
The mark [9] stands for this setting: metformin 800 μM overnight, normal and insulin-resistant conditions.
Setting [10] is: with doxycyclin-induced expression of isoform 2 of AS160.
The mark [11] stands for this setting: high glucose plus insulin conditions.
The mark [12] stands for this setting: high glucose plus insulin overnight (25 mM glucose+10 nM insulin).

The text below walks through data of patent publication US20100256014A1, “NOVEL AS160-LIKE PROTEIN, TEST SYSTEMS, METHODS AND USES INVOLVING IT FOR THE IDENTIFICATION OF DIABETES TYPE 2 THERAPEUTICS” (priority 2007, published 2010).

On to “1 L-6-hydroxymethyl-chiro-inositol 2-(R)-2-O-methyl-3-O-octadecylcarbonate [AKT inhibitor Calb., reference compound]”, for which the “effect on insulin-stimulated phosphorylation of AKT (Ser 473)” value in assay [1] (pre-incubation 1 hour (wortmannin 200 nM, AKT inhibitor Calb. 50 μM), then insulin 10 nM 20 minutes) is given as “no effect”.
Take `NC(=O)c1ncn([C@@H]2O[C@H](CO)[C@@H](O)[C@H]2O)c1N` [AICAR, 5-Aminoimidazole-4-carboxaide 1-beta-D-ribofuranoside, reference compound]: in assay [2] (with vs without isoform 2 of AS160), the “effect of expression of isoform 2 of AS160 on stimulated glucose uptake” value is “no additional effect”. The “uptake of glucose (2-deoxyglucose), fold increase after stimulation” value (from here on “uptake … fold increase after stimulation”) in assay [2] (setting [8]) was 1.5 fold.
Turning to `N#CC(=C(/N)Sc1ccccc1N)/C(C#N)=C(\N)Sc1ccccc1N` [U0126, reference compound], in assay [2] (U0126 10 μM, 20 μM, additional stimulation with 5 nM insulin, mainly in cells expressing isoform2 of AS160), the “effect on uptake of glucose” value was “significantly improved uptake of glucose”.
With `C[C@H]1c2cccc(O)c2C(O)=C2C(=O)[C@]3(O)C(O)=C(C(N)=O)C(=O)[C@@H](N(C)C)[C@@H]3[C@@H](O)[C@@H]21` [doxycyclin, reference compound], the “increase of glucose uptake induced by doxycyclin” value in assay [2] (doxycyclin 48 hours, insulin 20 minutes, correlated with isoform2 of AS160 protein levels) is on record as “dose-dependent manner”. Besides, the “increase of the number of GFP expressing cells” value in assay [3] is on record as “about 10 fold”.
For the compound `CN(C)C(=N)N=C(N)N` [metformin, dimethylbiguanide, reference compound], the “effect on activation of AKT” value in assay [4] (setting [9]) is recorded as “no effect”. In addition, the “effect on activation of AS160” value in assay [5] (setting [9]) was “no effect”.
With insulin, in assay [2] (50 nM insulin, time points 5, 15, 30 minutes), the “time at which the maximum of glucose uptake is observed” value is no more than 5 min. For the same compound, the “uptake … fold increase after stimulation” value in assay [2] (setting [10]) is “up to 4 fold”. Also, in assay [1] (insulin 5 nM to 50 nM, 20 minutes), the “phosphorylation of AKT (Ser 473)” value is listed as “induced the phosphorylation of AKT (Ser 473)”. Besides, the “AKT phosphorylation signal compared to untreated conditions (normal Glc)” value in assay [4] (setting [11]) worked out at 72%. Moreover, in assay [4] (setting [12]), the “AKT (Ser 473) phosphorylation under insulin-resistant conditions” value is “dose-dependent manner”. The “AKT phosphorylation (Ser 473)” value in assay [4] (normal conditions, insulin 20 minutes) was “dose-dependent manner”. In addition, the “AS160 phosphorylation signal compared to untreated conditions (normal Glc)” value in assay [5] (setting [11]) worked out at 72%. Besides, the “AS160 (Thr 642) phosphorylation under insulin-resistant conditions” value in assay [5] (setting [12]) was “dose-dependent manner”. In addition, the “phosphorylation of full-length or isoform2 of AS160 (Thr 642)” value in assay [5] (normal conditions, doxycyclin-induced cells, insulin 20 minutes) is “dose-dependent manner”. Moreover, in assay [6] (100 nM insulin 20 minutes, doxycyclin-induced expression of AS160-like protein), the “increased translocation of GLUT4 to the plasma membrane” value is on record as roughly 15%. The GLUT4 translocation result in assay [6] (100 nM insulin alone (no AS160-like expression)) is reported as “slightly induced”. Besides, the “localization of GLUT4-myc” value in assay [7] was “induces the translocation of GLUT4-myc to the plasma membrane”.
In the case of insulin like growth factor-1 [IGF-1], the “uptake … fold increase after stimulation” value is “up to 5 fold” in assay [2] (setting [10]) and 3 fold in assay [2] (setting [8]).
